# Where two headings read alike, the source gives them in different places. Where no end group is shown, it is not given here.
# How the values were obtained:
# [1] = Thermogravimetric analysis overlaid with DSC; settings: after boiling at ~190 °C (melting at ~130 °C)
# Experimental: Thermogravimetric Analysis (TGA) was performed for ammonium acetate and ammonium TFA using a TA Thermogravimetric Analyzer Q500 (TA, Instruments, New Castle, DE, USA). Standard aluminum pans were filled with about 5–7 mg of powder. Temperature ramp experiments were performed from 30 °C to 300 °C at a rate of 5 °C·min^−1 with a nitrogen purge at 50 mL·min^−1.
# Differential scanning calorimetry (DSC) analysis was performed using a TA Instruments 175 Model Auto Q20 DSC. Samples of 5–7 mg were weighed and placed into standard aluminum pans. The scans were performed at a ramp rate of 5 °C·min^−1 in the range of 30–300 °C. During the analyses, high-purity nitrogen flowed through the sample chamber at a rate of 50 mL·min^−1.
# [2] = cited from earlier work
# physchem = format: physicochemical
# Experimental: The samples were shaken on a vortex mixer for 5 min and on an orbital shaker at 100 rpm for 3 h. The samples were collected and centrifuged at 12,000 rpm for 15 min. The supernatants of the samples were collected and analyzed using HPLC as described in Section 2.6 below.
# (§1) CSP7 was chemically analyzed with a Thermo Scientific™ Dionex™ UltiMate™ 3000 HPLC System (Thermo Scientific, Sunnyvale, CA, USA) with a wavelength of 220 nm. The two mobile phases were designated Phase A (0.1% trifluoroacetic acid in water) and Phase B (0.09% trifluoroacetic acid in a mixture of 20:80 water and acetonitrile). The HPLC gradient that operated at 1.0 mL·min^−1 ran from 25% to 35% for mobile Phase B for 20 min then equilibrated at 25% for 5 min. An Ultimate 3000 Autosampler was utilized to inject 20 μL samples. Injections were passed through a Phenomenex® Luna 5 μm C18(2) 100 Å, 150 mm × 4.6 mm (Phenomenex, Torrance, CA, USA), maintained at ambient temperature. The retention time of CSP7 was approximately 8.3 min. The standard curve of the CSP7 (concentrations of 0.015625–1.00 mg·mL^−1) were prepared. All analyses maintained linearity in the range tested. Chromeleon Version 6.80 software (Thermo Scientific) was used to process all chromatography data.
# [3] = Water sorption-desorption isotherm (dynamic vapor sorption); format: physicochemical; settings: bulk powder, 25 °C, sorption-desorption cycle
# Experimental: Water sorption isotherms at 25 °C were determined for lyophilized formulations using a dynamic vapor sorption (DVS-1) microbalance (Surface Measurement Systems, London, UK). A quartz pan was filled with about 8–10 mg of powder. Samples were dried with nitrogen gas until a baseline was established less than 0.002% change in dm/dt for 120 min. Each formulation was run through a full sorption-desorption cycle from 0% to 90% RH in steps of 10% RH at 25 °C. Humidity was increased/decreased by 10% after equilibrium was reached, as determined by a dm/dt less than 0.0075% within an interval of 5 min. Sorption-desorption isotherms were calculated and plotted based on their percent change in mass compared to the initial dry formulation weight (Equation (2)):(2) % Mass sorption/desorption =(Increase or decrease in mass from water sorption/desorption/mass of dry powder at initial equilibration (0% RH))× 100
# [4] = Molar ratio of counterions to CSP7 by solution 1H/19F NMR; format: physicochemical; settings: bulk powder, initial vs after exposure to 90% RH, Equation (6)
# Experimental: We acquired ^1H-NMR spectra using a Varian® NMR 600 MHz Spectrometer (Agilent Inc., Palo Alto, CA, USA) at 25 °C. The lyophilized samples were reconstituted in deuterium oxide at 1.0 mg·mL^−1. We added 5 μL of 1 N NaOH/D2O was added to the sample to dissolve the peptides. Solutions were then transferred to 5 mm NMR tubes for NMR data acquisition. Chemical shifts were referenced to a residual solvent, H2O, at 4.61 ppm. At this time, the ^1H-NMR spectra were acquired using an Agilent Direct Drive 600 spectrometer, operating at a proton frequency of 599.75 MHz (14.1 T) at 298 K, equipped with an AutoX DB probe. All ^1H-NMR spectra were recorded in D2O after 128 cycles for each sample. The molar ratio of counterion to peptide was calculated according to the peak area of the methyl group of CSP7 (0.85, 0.93, and 1.03 ppm; 18 H atoms in total) and the methyl group of the acetate counterion (1.75 ppm; 3 H atoms). […]
# We acquired ^19F-NMR spectra using a Varian® NMR 600 MHz Spectrometer (Agilent Inc., Palo Alto, CA, USA) at 25 °C. […] All ^19F NMR spectra were recorded in D2O after 512 cycles for each sample. The molar ratio of counterion to peptide was calculated according to the peak area of fluorine atoms of the trifluoroacetate counterion (−75.5 ppm, 3 F atoms) and the […] (−107.7, −110.9, and −133.5 ppm; 1F atom each). […]
# [5] = Solution storage stability (HPLC recovery); format: physicochemical
# Experimental: (§2) The peptide solution was prepared in DPBS and TBS at 0.5 mg·ml^−1 of free peptide. The ammonium hydroxide was added to the solution to dissolve the peptide until a clear solution was obtained.
# The peptide solutions were stored at −80 °C, −20 °C, 2−8 °C, and at room temperature (25 °C). The samples were collected after 24 h and 48 h and analyzed using HPLC as described in Section 2.6 below.
# as §1
# [6] = format: physicochemical
# Experimental: as §2
# Freeze-thaw cycles were studied at −20 °C and −80 °C. The peptide solutions were frozen at each temperature for 1 h and then thawed at room temperature (25 °C) for 1 h. The freeze-thaw cycle was repeated for 5 cycles. The samples were collected at the end of each cycle and analyzed using HPLC as described in Section 2.6 below.
# as §1
# [7] = format: physicochemical; settings: DPBS; for Recovery of CSP7 in the aggregates / Recovery of CSP7 in the supernatant: 12 h shaking
# Experimental: as §2
# The peptide solutions were shaken on a VWR standard orbital shaker model 1000 (Radnor, PA, USA) at 200 rpm at 5 °C and 25 °C. The samples were collected at 0.5, 1, 3, 6, and 12 h, and they were analyzed using HPLC as described in Section 2.6 below. The CSP7 aggregates were also collected and analyzed using ^1H-NMR as described in Section 2.14 below.
# as §1
compound,measurement,setting,value
N.O=C(O)C(F)(F)F [ammonium TFA],Mass remaining in TGA,[1],0%
CC(=O)O.N [ammonium acetate],Vapor pressure,[2]; at 25 °C,13.9 mm Hg
same,Boiling point,[2],138.5 °C
FTTFTVT [CSP7 TFA],Solubility,"physchem; 3 h, pH 10",4134 ± 320 µg/mL
same,solubility at 3 h,"physchem; pH 8, Solubility",1220 ± 24 µg/mL
same,Decrease in weight in moisture desorption isotherm compared to initial weight,[3],no change in weight
FTTFTVT [CSP7 acetate],solubility at 3 h,"physchem; pH 2, Solubility",701 ± 153 µg/mL
same,solubility at 3 h,"physchem; pH 3.5, Solubility",241 ± 7 µg/mL
same,solubility at 3 h,"physchem; pH 4.5, Solubility",160 ± 3 µg/mL
same,solubility at 3 h,"physchem; pH 5.5, Solubility",174 ± 16 µg/mL
same,solubility at 3 h,"physchem; pH 6.5, Solubility",178 ± 13 µg/mL
same,solubility at 3 h,"physchem; pH 7.5, Solubility",347 ± 14 µg/mL
same,solubility at 3 h,"physchem; pH 10, Solubility",2880 ± 201 µg/mL
same,Decrease in weight in moisture desorption isotherm compared to initial weight,[3],6.36%
same,Percentage of mass loss calculated from NMR molar ratios of acetate to CSP7,[4],6.37%
same,Recovery in bulk solution after storage,"[5]; DPBS, 24 h, 5 °C",99.9 ± 0.1%
same,Recovery in bulk solution after storage,"[5]; DPBS, 24 h, 25 °C",100.1 ± 0.1%
same,Recovery in bulk solution after storage,"[5]; DPBS, 24 h, −20 °C",100.2 ± 0.8%
same,Recovery in bulk solution after storage,"[5]; DPBS, 24 h, −80 °C",100.0 ± 0.1%
same,Recovery in bulk solution after storage,"[5]; DPBS, 48 h, 5 °C",99.9 ± 0.1%
same,Recovery in bulk solution after storage,"[5]; DPBS, 48 h, 25 °C",99.9 ± 0.3%
same,Recovery in bulk solution after storage,"[5]; DPBS, 48 h, −20 °C",100.3 ± 0.7%
same,Recovery in bulk solution after storage,"[5]; DPBS, 48 h, −80 °C",100.0 ± 0.1%
same,Recovery in bulk solution after storage,"[5]; TBS, 24 h, 5 °C",100.1 ± 0.2%
same,Recovery in bulk solution after storage,"[5]; TBS, 24 h, 25 °C",100.2 ± 0.3%
same,Recovery in bulk solution after storage,"[5]; TBS, 24 h, −20 °C",100.2 ± 0.2%
same,Recovery in bulk solution after storage,"[5]; TBS, 24 h, −80 °C",100.1 ± 0.2%
same,Recovery in bulk solution after storage,"[5]; TBS, 48 h, 5 °C",100.1 ± 0.1%
same,Recovery in bulk solution after storage,"[5]; TBS, 48 h, 25 °C",100.3 ± 0.1%
same,Recovery in bulk solution after storage,"[5]; TBS, 48 h, −20 °C",100.5 ± 0.2%
same,Recovery in bulk solution after storage,"[5]; TBS, 48 h, −80 °C",100.5 ± 0.4%
same,Recovery of CSP7 in DPBS and TBS,"[5]; after 48 h storage at −80 °C, −20 °C, 5 °C and 25 °C",about 100%
same,CSP7 remaining in DPBS and TBS,[6],about 100%
same,Recovery in bulk solution after freeze-thaw,"[6]; DPBS, −20 °C, cycle 1",100.3 ± 0.2%
same,Recovery in bulk solution after freeze-thaw,"[6]; DPBS, −20 °C, cycle 2",100.7 ± 0.1%
same,Recovery in bulk solution after freeze-thaw,"[6]; DPBS, −20 °C, cycle 3",100.7 ± 0.1%
same,Recovery in bulk solution after freeze-thaw,"[6]; DPBS, −20 °C, cycle 4",101.0 ± 0.2%
same,Recovery in bulk solution after freeze-thaw,"[6]; DPBS, −20 °C, cycle 5",101.3 ± 0.2%
same,Recovery in bulk solution after freeze-thaw,"[6]; DPBS, −80 °C, cycle 1",99.8 ± 0.2%
same,Recovery in bulk solution after freeze-thaw,"[6]; DPBS, −80 °C, cycle 2",100.1 ± 0.1%
same,Recovery in bulk solution after freeze-thaw,"[6]; DPBS, −80 °C, cycle 3",100.2 ± 0.2%
same,Recovery in bulk solution after freeze-thaw,"[6]; DPBS, −80 °C, cycle 4",100.4 ± 0.1%
same,Recovery in bulk solution after freeze-thaw,"[6]; DPBS, −80 °C, cycle 5",100.9 ± 0.1%
same,Recovery in bulk solution after freeze-thaw,"[6]; TBS, −20 °C, cycle 1",99.4 ± 0.3%
same,Recovery in bulk solution after freeze-thaw,"[6]; TBS, −20 °C, cycle 2",99.6 ± 0.1%
same,Recovery in bulk solution after freeze-thaw,"[6]; TBS, −20 °C, cycle 3",99.7 ± 0.2%
same,Recovery in bulk solution after freeze-thaw,"[6]; TBS, −20 °C, cycle 4",99.8 ± 0.2%
same,Recovery in bulk solution after freeze-thaw,"[6]; TBS, −20 °C, cycle 5",100.2 ± 0.1%
same,Recovery in bulk solution after freeze-thaw,"[6]; TBS, −80 °C, cycle 1",99.9 ± 0.3%
same,Recovery in bulk solution after freeze-thaw,"[6]; TBS, −80 °C, cycle 2",100.3 ± 0.2%
same,Recovery in bulk solution after freeze-thaw,"[6]; TBS, −80 °C, cycle 3",100.4 ± 0.2%
same,Recovery in bulk solution after freeze-thaw,"[6]; TBS, −80 °C, cycle 4",100.7 ± 0.2%
same,Recovery in bulk solution after freeze-thaw,"[6]; TBS, −80 °C, cycle 5",100.6 ± 0.4%
same,Recovery of CSP7 in the aggregates,[7]; 5 °C,31.7 ± 2.3%
same,Recovery of CSP7 in the supernatant,[7]; 5 °C,67.8 ± 5.8%
same,Recovery of CSP7 in the aggregates,[7]; 25 °C,38.3 ± 2.8%
same,Recovery of CSP7 in the supernatant,[7]; 25 °C,59.7 ± 1.5%
same,Shaking time after which peptide aggregation was found,"[7]; orbital shaker, 5 °C and 25 °C",6 h

# Reference: PMC6835953, “Formulation Composition and Process Affect Counterion for CSP7 Peptide” (Pharmaceutics, 2019)
